Results reported in publication doi:10.1101/252379v1 (biorxiv, 2018).

Assays:
Sir2La [1] = target: T1, Sir2La (Lactobacillus acidophilus, UniProt Q5FMQ6); assay: end-point fluorogenic deacylase assay; format: biochemical
T1 sequence (Q5FMQ6 1-239): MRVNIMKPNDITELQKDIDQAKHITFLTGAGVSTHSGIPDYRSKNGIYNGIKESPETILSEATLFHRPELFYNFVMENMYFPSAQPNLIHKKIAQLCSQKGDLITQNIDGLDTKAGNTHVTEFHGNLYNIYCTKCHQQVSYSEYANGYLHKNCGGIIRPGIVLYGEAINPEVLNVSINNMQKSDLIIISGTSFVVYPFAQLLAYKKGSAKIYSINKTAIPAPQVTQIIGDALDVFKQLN

Sir2La [2] = target: T1, Sir2La; assay: biochemical; details: 6 IC50 (µM), continuous, continuous assay
Sir2La [3] = target: T1, Sir2La; assay: fluorogenic deacylase assay; format: biochemical; details: read-out: % residual activity at 50 μM

IC50 (Sir2La [1]) [µM]	IC50 (Sir2La [2]; Ac-LGKac-AMC (2b)) [µM]	IC50 (Sir2La [2]; Ac-LGKpro-AMC (2c)) [µM]	remaining activity at 50 µM (Sir2La [3]) [%]	SMILES
100 ± 30				Cc1ccc(C(=O)Nc2ccc(S(=O)(=O)O)c3cc(S(=O)(=O)O)cc(S(=O)(=O)O)c23)cc1NC(=O)c1cccc(NC(=O)Nc2cccc(C(=O)Nc3cc(C(=O)Nc4ccc(S(=O)(=O)O)c5cc(S(=O)(=O)O)cc(S(=O)(=O)O)c45)ccc3C)c2)c1 [suramin]
350 ± 70				NC(=O)c1cccnc1 [nicotinamide]
15 ± 2	5.8 ± 0.1	12		CC(=S)NCCCC[C@H](NC(=O)OCc1ccccc1)C(=O)N[C@@H](Cc1c[nH]c2ccccc12)C(=O)NC(C)C [compound 6, thioacetamide 6]
			77	CNC(=S)NCCCC[C@H](NC(=O)OCc1ccccc1)C(=O)N[C@@H](Cc1c[nH]c2ccccc12)C(=O)NC(C)C [compound 7, thiourea 7]
